Measurements from patent US11740235B2, “Model-membrane-based lipid transfer assays and methods” (Regents of the University of Minnesota, priority 2019, dated 2023).
“Also recorded” adds a separate entry of the source.

Experiments:
Assay type in all cases: biochemical
GFP-GLTP = assay: Bicelle-dilution FRET lipid transfer assay with HeLa cell lysate; conditions: lysate of transfected HeLa cells, 10 μl aliquots; donor q=0.5, acceptor q=0.5
Protocol: (§1) FIG. 14. Bicelle-dilution-model-membrane-assay detection of transfer activity by GLTP and CPTP expressed in HeLa cells after transient transfection with GFP-GLTP or GFP-CPTP. Cells were disrupted by brief probe sonication (30 sec×2) on ice. Cell supernatants were recovered by benchtop centrifugation (5 min @ 12,000 rpm) at 4° C. and then 10 μl aliquots were assayed for LTP activity. (Donor: q=0.5; Acceptor: q=0.5).
(§2) HeLa cells were plated on 100-mm dishes and transfected with different vectors using Lipofectamine 2000 (Invitrogen, Carlsbad, Calif.). At 24 hours post-transfection, cells were harvested by trypsinization, washed with phosphate-buffered saline (PBS) by benchtop centrifugation and then suspended in PBS buffer (200 μl). Disruption of the HeLa cells was accomplished by brief probe sonication (2×30 seconds) on ice. Cell supernatants were recovered by benchtop centrifugation (5 minutes at 12,000 rpm) at 4° C. and 10 μl aliquots were assayed for SLTP activity using donor bicelle-dilution vesicles containing either Me4-BODIPY-GalCer or Me4-BODIPY-C1P along with C18-DiI.

GLTP [1] = molecular target: T1, GLTP (Homo sapiens, UniProt Q9NZD2); assay: Bicelle-dilution FRET lipid transfer assay, lipid specificity; conditions: for transfer by GLTP between bd donors and acceptors: donor q=0.5, acceptor q=0.5
T1 construct: 6xHis-SUMO (N, cleaved yes); made in house; host or cells: E. coli BL21 (DE3)-pLysS or -Star
T1 sequence (Q9NZD2 1-209): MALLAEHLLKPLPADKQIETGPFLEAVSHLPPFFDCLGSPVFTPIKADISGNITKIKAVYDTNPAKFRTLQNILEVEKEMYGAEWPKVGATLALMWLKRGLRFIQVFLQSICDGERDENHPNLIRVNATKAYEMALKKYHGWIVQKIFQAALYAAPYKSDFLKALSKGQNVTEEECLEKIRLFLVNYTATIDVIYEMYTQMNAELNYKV
Protocol: (§3) For experiments requiring ˜10 kinetic assays, donor stock lipid mixtures (0.5 q-value) were prepared by combining POPC (0.39 μmol), BODIPY-15-SL (0.004 μmol), DiI-C18 (0.006 μmol) and DHPC (0.8 μmol) from stock solvent solutions of hexane/ethanol (9:1) or chloroform/methanol (8:2). Acceptor stock lipid mixtures (0.5 q-value) were prepared by combining POPC (2 μmol) and DHPC (4 μmol) from stock solvent solutions. Total solvent volume in the clean glass vials containing inverted conical bottoms was approximately 100 μl. For other q-value stocks, the amount of DHPC was adjusted accordingly. Dry films of the lipid mixtures were obtained using a stream of nitrogen to evaporate all solvent at room temperature. The dry lipid films were hydrated by adding 200 μl of assay buffer (10 mM potassium phosphate, pH 6.6, 150 mM NaCl, and 0.2% EDTA) and then vortexed vigorously for at least five minutes to achieve optical clarity. For stocks with q-values of 1 or 2, lipid mixtures were not only vortexed vigorously but also sonicated briefly (2 to 3 minutes). All stocks were equilibrated overnight at room temperature prior to use in the lipid transfer assay regardless of q-value [q-value for donors=(POPC+BODIPY-15-SL+DiIC18)/DHPC; q-value for acceptors=POPC/DHPC]. Immediately prior to use in the FRET lipid transfer assay, donor and acceptor stocks were centrifuged for 10 minutes at 13,000 rpm. The FRET lipid transfer assay as performed as follows: donor stock (20 μl) was diluted into a stirred temperature-controlled cuvette containing assay buffer an equilibrated for two minutes to ensure a stable signal response. Next, acceptor stock (20 μl was diluted into the stirred cuvette and equilibrated for four minutes prior to initiating sphingolipid transfer by adding lipid transfer protein (2 μg) to a final cuvette volume of 2.5 ml. The total lipid concentration was 288 μM for assays using a 5:1 acceptor-to-donor ratio and was higher when more acceptors were added to increase transfer equilibrium from the donors.
(§4) Real-time intermembrane transfer rates of fluorescent sphingolipids were obtained by Förster resonance energy transfer (FRET) using a SPEX FluoroLog3 spectrofluorometer (Horiba Scientific, Ltd., Kyoto, Japan), with excitation and emission band passes of 2 nm and a stirred (˜100 rpm), temperature-controlled (25±0.1° C.) sample cuvette holder. All fluorescent lipids were localized initially to the SL-source (donor) vesicles (formed by rapid ethanol injection or probe sonication) or SL-source (donor) b-d model membranes. Minimal BODIPY-lipid emission occurred upon excitation (460 nm) due to resonance energy transfer to nearby C18-DiI. Either sonicated POPC vesicles or b-d POPC/DHPC model membranes served as receiver (acceptor) model membranes, which produced minimal change in fluorescence signal when added in excess (Mattjus et al., 1999, Anal. Biochem. 268:297-304). The final receiver (acceptor) vesicle concentration in the FRET lipid transfer assay was ˜240 μM to 1440 μM, which was five-fold to 30-fold higher than the SL-source (donor) vesicle concentration. Protein addition triggered a sudden, hyperbolic increase in BODIPY emission intensity (503 nm) as FRET decreased due to protein transport of fluorescent glycolipids from SL-source (donor) vesicles to receiver (acceptor) vesicles, creating separation from nontransferable C18-DiI lipid, as the protein delivers the BODIPY-SL to the excess POPC receiver vesicles or POPC/DHPC bicelles. Addition of Tween-20 detergent after extended incubation provided a measure of maximum intensity achievable by “infinite” fluorophore separation.

ACD11 [2] = molecular target: T2, ACD11 (Arabidopsis thaliana, UniProt O64587); assay: as above; conditions: donor q=0.5, acceptor q=0.5
T2 construct: 6xHis-SUMO (N, cleaved yes); made in house; host or cells: E. coli BL21 (DE3)-pLysS or -Star
T2 sequence (O64587 1-206): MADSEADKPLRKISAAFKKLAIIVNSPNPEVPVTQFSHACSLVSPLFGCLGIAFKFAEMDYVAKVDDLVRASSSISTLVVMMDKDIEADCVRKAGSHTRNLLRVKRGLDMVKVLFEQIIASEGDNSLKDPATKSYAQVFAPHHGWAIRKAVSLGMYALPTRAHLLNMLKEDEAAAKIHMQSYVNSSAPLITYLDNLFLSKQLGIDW
Protocol: as §3, §4

ACD11 [3] = molecular target: T2, ACD11; assay: Bicelle-dilution FRET assay, competitive inhibition of BODIPY-C1P transfer; conditions: increasing concentrations in donor bd-vesicles; donor q=0.5, acceptor q=0.5
Description: The C1P derivative, diethyl-C1P, can inhibit cytosolic phospholipase A2α (cPLA2α) activity when the C1P acyl chain is short—e.g., C2-diethyl-C1P. The inhibition of cPLA2α by C2-diethyl-C1P presumably occurs via interaction with the cPLA2α C2-domain, which contains a C1P binding site that activates cPLA2α by enhancing translocation to membranes. To date, no inhibitors of C1P transfer proteins (e.g., CPTP and ACD11) have been reported. The bicelle-dilution FRET assay was used to test whether C2-diethyl-C1P can inhibit the plant CPTP ortholog, ACD11. […]
(§5) Real-time intermembrane transfer rates of fluorescent sphingolipids were obtained by Förster resonance energy transfer (FRET) using a SPEX FluoroLog3 spectrofluorometer (Horiba Scientific, Ltd., Kyoto, Japan), with excitation and emission band passes of 2 nm and a stirred (˜100 rpm), temperature-controlled (25±0.1° C.) sample cuvette holder. […] Either sonicated POPC vesicles or b-d POPC/DHPC model membranes served as receiver (acceptor) model membranes, which produced minimal change in fluorescence signal when added in excess (Mattjus et al., 1999, Anal. Biochem. 268:297-304). […]

GFP-CPTP = assay: Bicelle-dilution FRET lipid transfer assay with HeLa cell lysate; conditions: lysate of transfected HeLa cells, 10 μl aliquots; donor q=0.5, acceptor q=0.5
GFP-CPTP, sequence (Q5TA50 whole entry): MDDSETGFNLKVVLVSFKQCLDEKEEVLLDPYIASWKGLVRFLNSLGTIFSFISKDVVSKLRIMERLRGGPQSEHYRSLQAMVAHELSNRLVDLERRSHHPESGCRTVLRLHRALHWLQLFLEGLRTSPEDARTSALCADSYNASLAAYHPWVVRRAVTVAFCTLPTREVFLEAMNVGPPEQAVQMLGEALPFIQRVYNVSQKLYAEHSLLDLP
Protocol: as §1, §2

GLTP [4] = molecular target: T1, GLTP; assay: FRET lipid transfer control with DHPC in assay buffer, ethanol-injection donors and sonicated acceptors; conditions: DHPC 352 μM and 672 μM in assay buffer; ethanol-injection donors, sonicated acceptors (5×)
Protocol: Small phosphatidylcholine vesicles (25-40 nm diameters) have typically been used as model membranes to assess lipid inter-bilayer transfer because of the faster transfer rates compared to those obtained using larger vesicles. Different donor and acceptor combinations were tested involving either small vesicles and/or 0.5 q-value bicelle dilution vesicles (bd-vesicles) to determine which combination produced the fastest intermembrane transfer rates. […] When the donor vesicles were produced by sonication, sphingolipid transfer rates were markedly slowed regardless of whether the acceptors were bd-vesicles or sonicated vesicles. […] Thus, similar high assay sensitivity can be achieved using the bicelle-to-bicelle transfer conditions as for vesicle-to-vesicle transfer conditions. […]
as §5

Row | Compound | bd-vesicle-to-bd-vesicle transfer by GFP-GLTP (GFP-GLTP) | transfer by GLTP between bd donors and acceptors (GLTP [1]) | transfer by ACD11 between bd donors and acceptors (ACD11 [2]) | also measured
1 | Me4-BODIPY-15-galactosylceramide [Me4-BODIPY GalCer] | transfer | is detected | not | transfer equilibrium by GLTP (GLTP [1]; bicelle-dilution vesicles, 100% estimated by Tween-20 solubilization): ~70%; transfer by GLTP between bd donors and acceptors (GLTP [1]; listed as BODIPY-GalCer): transfer
2 | ceramide-1-phosphate [C1P] | – | – | – | competition effect on ACD11-mediated transfer rates of Me4-BODIPY C1P (ACD11 [3]): Slowing of ACD11 transfer of BODIPY-C1P; also recorded: slow the inter-bicelles transfer rates
3 | Me4-BODIPY-15-ceramide-1-phosphate [Me4-BODIPY C1P] | not | not | specifically transfers | bd-vesicle-to-bd-vesicle transfer by GFP-CPTP (GFP-CPTP): transfer; transfer by ACD11 between bd donors and acceptors (ACD11 [2]; listed as BODIPY-C1P): transfer
4 | CCCCCC(=O)OC[C@H](COP(=O)([O-])OCC[N+](C)(C)C)OC(=O)CCCCC [DHPC, 1,2-hexanoyl-sn-glycero-3-phosphocholine] | – | – | – | effect on GLTP transfer rate of Me4-BODIPY-GalCer (GLTP [4]): Lack of significant effect; also recorded: Minimal affect
